Species on record: Rattus norvegicus
Test: DrugMatrix - Regimen: Daily Repeat
Assay type: toxicity, organism-based, Sprague-Dawley
Set-up: regimen Daily Repeat, gender Male, age 6-8 weeks
Details: in vivo, sc, route subcutaneous, […]; for ABSOLUTE BASOPHIL / ABSOLUTE EOSINOPHIL / ABSOLUTE LYMPHOCYTE / ABSOLUTE MONOCYTE / ABSOLUTE SEGMENTED NEUTROPHIL / BASOPHIL / EOSINOPHIL / ERYTHROCYTE COUNT / HEMATOCRIT / HEMOGLOBIN / LEUKOCYTE COUNT / LYMPHOCYTE / MEAN CORPUSCULAR HEMOGLOBIN / MEAN CORPUSCULAR HEMOGLOBIN CONCENTRATION / MEAN CORPUSCULAR VOLUME / MONOCYTE / NEUTROPHIL / NUCLEATED RED BLOOD CELLS / PLATELET COUNT: tissue Blood; for ALANINE AMINOTRANSFERASE / ALBUMIN / ALKALINE PHOSPHATASE / ASPARTATE AMINOTRANSFERASE / BLOOD UREA NITROGEN / CARBON DIOXIDE / CHLORIDE / CHOLESTEROL / CREATINE PHOSPHOKINASE / CREATININE / GLUCOSE / LACTATE DEHYDROGENASE / LIPASE / PHOSPHORUS / POTASSIUM / SODIUM / TOTAL BILIRUBIN / TOTAL PROTEIN / URIC ACID: tissue Plasma
[1] = 0.8 mg/kg, 120 h, dose level Low, time 5 day
[2] = 8 mg/kg, 72 h, dose level High, time 3 day
[3] = 8 mg/kg, 120 h, dose level High, time 5 day

Oc1c(Cl)cc(Cl)c(Cl)c1Cc1c(O)c(Cl)cc(Cl)c1Cl [HEXACHLOROPHENE] was tested, and the “ABSOLUTE BASOPHIL” value [1] was 0 CELLS/uL, the “ABSOLUTE EOSINOPHIL” value [1] was 0 CELLS/uL and the “ABSOLUTE LYMPHOCYTE” value [1] was 15077 CELLS/uL. For the same molecule, the “ABSOLUTE MONOCYTE” value [1] was 281 CELLS/uL, the “ABSOLUTE SEGMENTED NEUTROPHIL” value [1] was 1342 CELLS/uL and the BASOPHIL [1] was 0%. The EOSINOPHIL [1] was 0%, the “ERYTHROCYTE COUNT” value [1] was 5.52 x10E6/uL and the HEMATOCRIT [1] was 35.07%. The HEMOGLOBIN [1] was 13.27 G/DL, the “LEUKOCYTE COUNT” value [1] was 16.7 x10E3/uL and the LYMPHOCYTE [1] was 90.33%. For the same molecule, the “MEAN CORPUSCULAR HEMOGLOBIN” value [1] was 24.07 pg, the “MEAN CORPUSCULAR HEMOGLOBIN CONCENTRATION” value [1] was 37.9 G/DL and the “MEAN CORPUSCULAR VOLUME” value [1] was 63.53 fL. The MONOCYTE [1] was 1.67%, the NEUTROPHIL [1] was 8% and the “NUCLEATED RED BLOOD CELLS” value [1] was 0 /100WBC. The “PLATELET COUNT” value [1] was 1358.33 x10E3/uL, the “ALANINE AMINOTRANSFERASE” value [1] was 45.33 u/L and the ALBUMIN [1] was 4.07 G/DL. For the same molecule, the “ALKALINE PHOSPHATASE” value [1] was 296.33 u/L, the “ASPARTATE AMINOTRANSFERASE” value [1] was 78 u/L and the “BLOOD UREA NITROGEN” value [1] was 15.67 mg/dL. The “CARBON DIOXIDE” value [1] was 26.67 mmol/L, the CHLORIDE [1] was 104.67 MEQ/L and the CHOLESTEROL [1] was 74.67 mg/dL. For the same molecule, the “CREATINE PHOSPHOKINASE” value [1] was 237 u/L, the CREATININE [1] was 0.35 mg/dL and the GLUCOSE [1] was 154.33 mg/dL. For the same molecule, the “LACTATE DEHYDROGENASE” value [1] was 156 u/L, the LIPASE [1] was 11 u/L and the PHOSPHORUS [1] was 11.83 mg/dL. The POTASSIUM [1] was 6.6 MEQ/L, the SODIUM [1] was 144.67 MEQ/L and the “TOTAL BILIRUBIN” value [1] was 0.13 mg/dL. The “TOTAL PROTEIN” value [1] was 5.8 G/DL, the “URIC ACID” value [1] was 1.47 mg/dL and the “ABSOLUTE BASOPHIL” value [2] was 0 CELLS/uL. For the same molecule, the “ABSOLUTE EOSINOPHIL” value [2] was 49.67 CELLS/uL, the “ABSOLUTE LYMPHOCYTE” value [2] was 12140.67 CELLS/uL and the “ABSOLUTE MONOCYTE” value [2] was 337 CELLS/uL. The “ABSOLUTE SEGMENTED NEUTROPHIL” value [2] was 1839.33 CELLS/uL, the BASOPHIL [2] was 0% and the EOSINOPHIL [2] was 0.33%. The “ERYTHROCYTE COUNT” value [2] was 5.89 x10E6/uL, the HEMATOCRIT [2] was 36.63% and the HEMOGLOBIN [2] was 13.43 G/DL. The “LEUKOCYTE COUNT” value [2] was 14.37 x10E3/uL, the LYMPHOCYTE [2] was 84.67% and the “MEAN CORPUSCULAR HEMOGLOBIN” value [2] was 22.8 pg. The “MEAN CORPUSCULAR HEMOGLOBIN CONCENTRATION” value [2] was 36.7 G/DL, the “MEAN CORPUSCULAR VOLUME” value [2] was 62.27 fL and the MONOCYTE [2] was 2.33%. For the same molecule, the NEUTROPHIL [2] was 12.67%, the “NUCLEATED RED BLOOD CELLS” value [2] was 0 /100WBC and the “PLATELET COUNT” value [2] was 1253 x10E3/uL. For the same molecule, the “ALANINE AMINOTRANSFERASE” value [2] was 52 u/L, the ALBUMIN [2] was 4.1 G/DL and the “ALKALINE PHOSPHATASE” value [2] was 314.33 u/L. The “ASPARTATE AMINOTRANSFERASE” value [2] was 87.67 u/L, the “BLOOD UREA NITROGEN” value [2] was 16.67 mg/dL and the “CARBON DIOXIDE” value [2] was 22.33 mmol/L. For the same molecule, the CHLORIDE [2] was 105.33 MEQ/L, the CHOLESTEROL [2] was 87.33 mg/dL and the “CREATINE PHOSPHOKINASE” value [2] was 258.67 u/L. The CREATININE [2] was 0.21 mg/dL, the GLUCOSE [2] was 187.33 mg/dL and the “LACTATE DEHYDROGENASE” value [2] was 132 u/L. The LIPASE [2] was 9.67 u/L, the PHOSPHORUS [2] was 11.9 mg/dL and the POTASSIUM [2] was 5.67 MEQ/L. The SODIUM [2] was 146.53 MEQ/L, the “TOTAL BILIRUBIN” value [2] was 0.17 mg/dL and the “TOTAL PROTEIN” value [2] was 5.93 G/DL. For the same molecule, the “URIC ACID” value [2] was 2.47 mg/dL, the “ABSOLUTE BASOPHIL” value [3] was 0 CELLS/uL and the “ABSOLUTE EOSINOPHIL” value [3] was 154 CELLS/uL. For the same molecule, the “ABSOLUTE LYMPHOCYTE” value [3] was 13307.33 CELLS/uL, the “ABSOLUTE MONOCYTE” value [3] was 238 CELLS/uL and the “ABSOLUTE SEGMENTED NEUTROPHIL” value [3] was 1100.67 CELLS/uL. The BASOPHIL [3] was 0%, the EOSINOPHIL [3] was 1% and the “ERYTHROCYTE COUNT” value [3] was 5.91 x10E6/uL. For the same molecule, the HEMATOCRIT [3] was 35.87%, the HEMOGLOBIN [3] was 13.17 G/DL and the “LEUKOCYTE COUNT” value [3] was 14.8 x10E3/uL. For the same molecule, the LYMPHOCYTE [3] was 90%, the “MEAN CORPUSCULAR HEMOGLOBIN” value [3] was 22.3 pg and the “MEAN CORPUSCULAR HEMOGLOBIN CONCENTRATION” value [3] was 36.7 G/DL. For the same molecule, the “MEAN CORPUSCULAR VOLUME” value [3] was 60.8 fL, the MONOCYTE [3] was 1.67% and the NEUTROPHIL [3] was 7.33%. The “NUCLEATED RED BLOOD CELLS” value [3] was 0 /100WBC, the “PLATELET COUNT” value [3] was 1301.67 x10E3/uL and the “ALANINE AMINOTRANSFERASE” value [3] was 46 u/L. The ALBUMIN [3] was 4 G/DL, the “ALKALINE PHOSPHATASE” value [3] was 378.33 u/L and the “ASPARTATE AMINOTRANSFERASE” value [3] was 85 u/L. The “BLOOD UREA NITROGEN” value [3] was 16.33 mg/dL, the “CARBON DIOXIDE” value [3] was 27.33 mmol/L and the CHLORIDE [3] was 104.67 MEQ/L. For the same molecule, the CHOLESTEROL [3] was 70.33 mg/dL, the “CREATINE PHOSPHOKINASE” value [3] was 346.67 u/L and the CREATININE [3] was 0.2 mg/dL. The GLUCOSE [3] was 174 mg/dL, the “LACTATE DEHYDROGENASE” value [3] was 129.67 u/L and the LIPASE [3] was 9.33 u/L. It also gave a PHOSPHORUS [3] of 11.03 mg/dL, a POTASSIUM [3] of 5.65 MEQ/L and an SODIUM [3] of 146 MEQ/L. The “TOTAL BILIRUBIN” value [3] was 0.2 mg/dL, the “TOTAL PROTEIN” value [3] was 5.83 G/DL and the “URIC ACID” value [3] was 1.63 mg/dL.

Reference: ChEMBL document CHEMBL3885881, “DrugMatrix”
